Consider eight compounds from article PMC11844072, “Novel 5,6-dichlorobenzimidazole derivatives as dual BRAFWT and BRAFV600E inhibitors: design, synthesis, anti-cancer activity and molecular dynamics simulations” (BMC Chemistry, 2025).

For assay [1], the target named is T1, BRAFWT (Homo sapiens, UniProt P15056).
T1 construct: purchased BPS Biosciences 78316
The assay is described as follows: BRAFWT kinase assay kit (Kinase-Glo Max luminescence). In kind it is biochemical. The conditions noted are these: BRAFwt, 10 µM; mean of two independent experiments ± SD. On the procedure:
The inhibitory activities of 10a–p on BRAFWT was examined utilizing BRAFWT assay kit (BPS Biosciences—San Diego—CA—US) (For further information see Additional file A).
4. Biochemical kinase assays
The inhibitory activity against different kinases was determined using kinase kits (BRAF WT […]
Glo Max luminescence kinase assay kit (Promega).
The assay was carried out according to the protocol provided by the manufacturer. A stock solution of the synthesized derivatives in 100% DMSO was prepared. Subsequently, the compounds were diluted to 10% DMSO.
A master mixture was prepared according to the number of wells. For BRAF assay each well include 6 μl of 5x Kinase Buffer 1 + 1 μl of ATP (500 μM) + 10 μl of 5X Raf substrate + 8 μl of distilled water. 1x Kinase buffer 1 was prepared by mixing 600 μl of 5x Kinase Buffer 1 with 2400 μl water to give 3 mL. Kinases were thawed on ice and were diluted with 1x Kinase Buffer 1.
To start the biochemical reaction, 25 µL of the master mixture was added to each well in 96 well plate. 5 µL of 10% DMSO was added to positive control wells and blank wells. 5 µL of diluted inhibitor was added to each well labelled with the test inhibitor so that the final concentration of DMSO is 1% in all reactions. Then 20 µL of (2.5 ng/μl) in case of BRAF WT and (1 ng / μl) in case of VEGFR-2 and FGFR-1 in 1x kinase buffer was added to positive control wells and wells labelled with the inhibitor, while 20 µL 1x kinase buffer 1 was added to the blank wells.
The plate was incubated at 30 °C for 45 min. Subsequently, 50 μl of Kinase-Glo Max luminescence reagent was added to each well and the plate was covered with aluminum foil and incubated at room temperature for 15 min. Finally, the luminescence was recorded using multimode microplate reader. Kinase activity assays were performed in duplicate at each concentration.
The luminescence data were analyzed as follows. The difference between luminescence intensities in the absence of kinase (Lu t) and in the presence of kinase (Lu c) was defined as 100 % […]
calculated as: % activity = {(Lu t - Lu)/(Lut - Luc)} ×100%. The concentration of the test compounds required to reduce the kinase activity by 50% was determined from dose-response curves and […]
Background: In Kinase-Glo more light means more ATP remaining.

The subject of assay [2] is A498. Description: NCI 60 single concentration growth inhibition. In kind it is cell-based, human. The conditions noted are these: A498, Renal cancer; for inhibition at 10 µM: Homo sapiens, read-out: GI%; for GI%: 10 μM. On the procedure: (§1) The synthesized dichlorobenzimidazoles 10a–p were assayed for their influence on divers cancer cell lines according to the method presented in the Additional file A.
(§2) 5. Screening of cytotoxic activity against a panel of sixty human tumor cell lines
(§3) The selected compounds by NCI were evaluated for their anticancer activity in a two-stage process. First, these compounds were screened against the full NCI 60 cell lines panel at a single high dose of 10 µM. Then, the output from the single dose screen is reported as a mean graph. […]
(§4) at five different minimal concentrations.
(§5) Assay protocol. The human tumor cell lines of the cancer screening panel are grown in RPMI 1640 medium containing 5% fetal bovine serum and 2 mM L-glutamine. For a typical screening experiment, cells are inoculated into 96 well microtiter plates in 100 µL at plating densities ranging from 5000 to 40,000 cells/well depending on the doubling time of individual cell lines. After cell inoculation, the microtiter plates are incubated at 37 °C, 5% CO 2, 95% air and 100% relative humidity for 24 h prior to addition of the experimental drugs.
(§6) After 24 h, two plates of each cell line are fixed in situ with TCA, to represent a measurement of the cell population for each cell line at the time of drug addition (Tz). The experimental drugs are solubilized in dimethyl sulfoxide at 400-fold the desired final maximum test concentration and stored frozen prior to use. At the time of drug addition, an aliquot of frozen concentrate is thawed and diluted to twice the desired final maximum test concentration with complete medium containing 50 µg/mL gentamicin. Additional four, 10-fold or ½ log serial dilutions are made to provide a total of five drug concentrations plus control.
(§7) Aliquots of […] of these different drug dilutions are added to the appropriate microtiter wells already containing […] of medium, resulting in the required final drug concentrations.
(§8) Following drug addition, the plates are incubated for an additional 48 h at 37 °C, 5% CO 2, 95% air, and 100% relative humidity. For adherent cells, the assay is terminated by the addition of cold TCA.
(§9) Cells are fixed in situ by the gentle addition of 50 µL of cold 50% (w/v) TCA (final concentration, 10% TCA) and incubated for 60 min at 4 °C. The supernatant is discarded, and the plates are washed five times with tap water and air dried. Sulforhodamine B (SRB) solution ([…]) at 0.4% (w/v) in 1% acetic acid is added to each well, and plates are incubated for 10 min at room temperature. After staining, unbound dye is removed by washing five times with 1% acetic acid and the plates are air dried. Bound stain is subsequently solubilized with 10 mM trizma base, and the absorbance is read on an automated plate reader at a wavelength of 515 nm. For suspension cells, the methodology is […]
(§10) the same except that the assay is terminated by fixing settled cells at the bottom of the wells by gently adding 50 µl of 80% TCA (final concentration, 16% TCA). Using the seven absorbance measurements [time zero, (Tz), control growth, (C), and test growth in the presence of drug at the five concentration levels (Ti)], the percentage growth is calculated at each of the drug concentrations […]
(§11) Percentage growth inhibition is calculated as: [(Ti Tz)/(C–Tz)] x 100 for concentrations for which Ti>/=Tz and [(Ti-Tz)/Tz] x 100 for concentrations for which Ti < Tz.
(§12) Three dose response parameters are calculated for each experimental agent. Growth […]
(§13) concentration resulting in a 50% reduction in the net protein increase (as measured by SRB staining) in control cells during the drug incubation. The drug concentration resulting in total growth inhibition (TGI) is calculated from Ti = Tz. […]
(§14) reduction in the measured protein at the end of the drug treatment as compared to that at the beginning) indicating a net loss of cells following treatment is calculated from [(Ti–Tz)/Tz] x 100 =
(§15) _50. Values are calculated for each of these three parameters if the level of activity is reached; […]

For assay [3], the system named is MDA-MB-468. The assay is described as follows: NCI 60 single concentration growth inhibition. In kind it is cell-based, human. The conditions noted are these: MDA-MB-468, Breast cancer; for inhibition at 10 µM: Homo sapiens, read-out: GI%; for GI%: 10 μM. The method, then:
as §1, §2, §3, §4, §5, §6, §7, §8, §9, §10, §11, §12, §13, §14, §15

Assay [4] deals with CCRF-CEM. The assay is described as follows: NCI 60 single concentration growth inhibition. It is filed as cell-based, human. The conditions noted are these: Leukemia; for inhibition at 10 µM: Homo sapiens, read-out: GI%; for GI%: 10 μM. The method, then: as §1, §2, §3, §4, §5, §6, §7, §8, §9, §10, §11, §12, §13, §14, §15
The test system of assay [5] is NCI-H226. Description: NCI 60 single concentration growth inhibition. It is filed as cell-based, human. As to conditions: NCI-H226, Non-small cell lung cancer; for inhibition at 10 µM: Homo sapiens, read-out: GI%; for GI%: 10 μM. On the procedure: as §1, §2, §3, §4, §5, §6, §7, §8, §9, §10, §11, §12, §13, §14, §15
The subject of assay [6] is SK-OV-3. The assay is described as follows: NCI 60 single concentration growth inhibition. It is filed as cell-based, human. The conditions noted are these: SK-OV-3, Ovarian cancer; for inhibition at 10 µM: Homo sapiens, read-out: GI%; for GI%: 10 μM. The method, then: as §1, §2, §3, §4, §5, §6, §7, §8, §9, §10, §11, §12, §13, §14, §15
Assay [7] has as its system HL-60(TB). Description: NCI 60 single concentration growth inhibition. In kind it is cell-based, human. The conditions noted are these: Leukemia; for inhibition at 10 µM: Homo sapiens, read-out: GI%; for GI%: 10 μM. The method, then:
as §1, §2, §3, §4, §5, §6, §7, §8, §9, §10, §11, §12, §13, §14, §15

Assay [8] concerns SK-MEL-28. The assay is described as follows: NCI 60 single concentration growth inhibition. As to conditions: SK-MEL-28, Melanoma; for inhibition at 10 µM: Homo sapiens, read-out: GI%; for GI%: 10 μM. It is filed as cell-based, human. The method, then:
as §1, §2, §3, §4, §5, §6, §7, §8, §9, §10, §11, §12, §13, §14, §15

T1 sequence (P15056 whole entry): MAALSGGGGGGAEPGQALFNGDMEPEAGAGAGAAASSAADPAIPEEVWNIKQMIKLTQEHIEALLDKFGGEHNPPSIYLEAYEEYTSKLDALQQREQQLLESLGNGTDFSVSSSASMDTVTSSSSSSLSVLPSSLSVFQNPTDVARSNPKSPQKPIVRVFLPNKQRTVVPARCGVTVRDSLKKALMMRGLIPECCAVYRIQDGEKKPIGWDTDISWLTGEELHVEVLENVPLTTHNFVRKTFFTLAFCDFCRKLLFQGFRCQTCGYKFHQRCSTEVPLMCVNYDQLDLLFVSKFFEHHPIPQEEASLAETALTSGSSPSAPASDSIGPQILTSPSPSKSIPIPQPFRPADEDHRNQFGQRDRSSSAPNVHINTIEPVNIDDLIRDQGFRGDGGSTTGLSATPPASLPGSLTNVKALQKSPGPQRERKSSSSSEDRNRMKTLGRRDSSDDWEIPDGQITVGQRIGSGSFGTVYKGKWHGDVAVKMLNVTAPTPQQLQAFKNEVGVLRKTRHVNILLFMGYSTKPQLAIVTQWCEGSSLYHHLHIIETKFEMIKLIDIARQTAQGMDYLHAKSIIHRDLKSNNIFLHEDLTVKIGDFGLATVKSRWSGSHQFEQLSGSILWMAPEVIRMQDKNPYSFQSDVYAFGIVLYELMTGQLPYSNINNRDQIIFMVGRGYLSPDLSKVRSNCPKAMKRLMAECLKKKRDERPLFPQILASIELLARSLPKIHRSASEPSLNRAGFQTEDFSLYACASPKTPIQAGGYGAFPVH

As to `COc1ccc(-c2nc3cc(Cl)c(Cl)cc3n2CC(=O)NN=Cc2cccc(O)c2)cc1` [Compound 10a, 2-(5,6-Dichloro-2-(4-methoxyphenyl)-1H-benzo[d]imidazol-1-yl)-N'-(3-hydroxybenzylidene)acetohydrazide], the inhibition at 10 µM in assay [1] worked out at 22.5 ± 1%; in assay [2], 48.9%; in assay [3], 82.1%; in assay [4], 40.6%; in assay [5] it was 43.7%; in assay [6], 35.5%. In addition, the results for the inhibition at 10 µM in assay [7] and in assay [8] were 42.6% and 39.3%, respectively.
Consider `COC(=O)COc1ccc(C=NNC(=O)Cn2c(-c3ccc(OC)cc3)nc3cc(Cl)c(Cl)cc32)cc1OC` [Compound 10p, Methyl-2-(4-((2-(2-(5,6-dichloro-2-(4-methoxyphenyl)-1H-benzo[d]imidazol-1-yl)acetyl)hydrazono)methyl)-2-methoxyphenoxy)acetate], for which the inhibition at 10 µM is 90.5 ± 8.9% in assay [1]; < 5% in assay [2]; 159% in assay [3]; 21.1% in assay [4]; < 5% in assay [5]; < 5% in assay [6]. The inhibition at 10 µM in assay [7] was < 5%; in assay [8], 6.03%.
The % inhibition is the relative decrease from the control value, in per cent. Lower therefore signals a response near the control. For “2-(5-((2-(2-(5,6-Dichloro-2-(4-methoxyphenyl)-1H-benzo[d]imidazol-1-yl)acetyl)hydrazono)methyl)-2-methoxyphenoxy)acetic acid [Compound 10n]”, the “% inhibition” value in assay [1] is given as 90.05 ± 5.16%. Besides, the GI% result in assay [2] is reported as “– (GI% < 5%)”; in assay [3], 12.44%; in assay [4], “– (GI% < 5%)”; in assay [5] it was 10.07%; in assay [6], “– (GI% < 5%)”; in assay [7], “– (GI% < 5%)”. Moreover, the GI% entry in assay [8] is recorded as “– (GI% < 5%)”.
Turning to `COC(=O)COc1cc(C=NNC(=O)Cn2c(-c3ccc(OC)cc3)nc3cc(Cl)c(Cl)cc32)ccc1OC` [Compound 10o, Methyl-2-(5-((2-(2-(5,6-dichloro-2-(4-methoxyphenyl)-1H-benzo[d]imidazol-1-yl)acetyl)hydrazono)methyl)-2-methoxyphenoxy)acetate], the inhibition at 10 µM in assay [1] was 34.3 ± 3.31%; in assay [2] it was < 5%; in assay [3], 118%; in assay [4] it was 16.9%; in assay [5] it was 10.2%; in assay [6], 24.1%. Also, the inhibition at 10 µM in assay [7] and in assay [8] was < 5% each time.
In the case of “3-(4-((2-(2-(5,6-Dichloro-2-(4-methoxyphenyl)-1H-benzo[d]imidazol-1-yl)acetyl)hydrazono)methyl)phenoxy)propanoic acid [Compound 10i]”, the “% inhibition” value in assay [1] is recorded as 74.95 ± 5.15%. The GI% result was “– (GI% < 5%)” in assay [2]; 10.83% in assay [3]; 10.70% in assay [4]; 23.02% in assay [5]; 6.27% in assay [6]; “– (GI% < 5%)” in assay [7]. The GI% entry in assay [8] is given as “– (GI% < 5%)”.
“2-(4-((2-(2-(5,6-Dichloro-2-(4-methoxyphenyl)-1H-benzo[d]imidazol-1-yl)acetyl)hydrazono)methyl) -2-methoxyphenoxy)acetic acid [Compound 10m]”: the “% inhibition” value in assay [1] is 77.25 ± 1.06%. Moreover, the GI% result was “– (GI% < 5%)” in assay [2]; “– (GI% < 5%)” in assay [3]; “– (GI% < 5%)” in assay [4]; 11.67% in assay [5]; “– (GI% < 5%)” in assay [6]; “– (GI% < 5%)” in assay [7]. Besides, in assay [8], the GI% result was “– (GI% < 5%)”.
In the case of `COc1ccc(-c2nc3cc(Cl)c(Cl)cc3n2CC(=O)NN=Cc2ccc(OC)c(O)c2)cc1` [Compound 10k, 2-(5,6-Dichloro-2-(4-methoxyphenyl)-1H-benzo[d]imidazol-1-yl)-N'-(3-hydroxy-4-methoxybenzylidene)acetohydrazide], the inhibition at 10 µM is 47.6 ± 3.8% in assay [1]; 29.7% in assay [2]; 71.2% in assay [3]; 43.8% in assay [4]; 48.1% in assay [5]; < 5% in assay [6]. In addition, the inhibition at 10 µM in assay [7] amounted to 60.8%; in assay [8], 17.3%.
For the compound `COc1ccc(-c2nc3cc(Cl)c(Cl)cc3n2CC(=O)NN=Cc2cccc(OC)c2)cc1` [Compound 10c, 2-(5,6-Dichloro-2-(4-methoxyphenyl)-1H-benzo[d]imidazol-1-yl)-N'-(3-methoxybenzylidene)acetohydrazide], the inhibition at 10 µM in assay [1] amounted to 53.85 ± 0.001%; in assay [2] it was 22.7%; in assay [3], 76.1%; in assay [4], 41.8%; in assay [5], 17.1%; in assay [6], 10.1%. Further, the inhibition at 10 µM in assay [7] was 28.8%; in assay [8], 20.5%.
